{"source": "paper PMC7503464", "about": "(Molecules, 2020)", "assay_in_all_cases": "biochemical", "key": {"[1]": {"target": "T1, dihydrofolate reductase (DHFR; wt-DHFR and midW mutants) (Escherichia coli, UniProt P0ABQ4, W133F/W22F/W47F/W74F)", "T1 construct": "gene folA", "source_text": "(§1) isothermal titration calorimetry on dihydrofolate reductase (DHFR; wt-DHFR and midW mutants)"}, "[2]": {"target": "T2, dihydrofolate reductase (DHFR; wt-DHFR and midW mutants) (Escherichia coli, UniProt P0ABQ4, W22F/W30F/W47F/W74F)", "T2 construct": "gene folA", "source_text": "as §1"}, "[3]": {"target": "T3, dihydrofolate reductase (DHFR; wt-DHFR and midW mutants) (Escherichia coli, UniProt P0ABQ4, W133F/W22F/W30F/W47F)", "T3 construct": "gene folA", "source_text": "as §1"}, "[4]": {"target": "T4, dihydrofolate reductase (DHFR; wt-DHFR and midW mutants) (Escherichia coli, UniProt P0ABQ4, W133F/W22F/W30F/W74F)", "T4 construct": "gene folA", "source_text": "as §1"}, "[5]": {"target": "T5, dihydrofolate reductase (DHFR; wt-DHFR and midW mutants) (Escherichia coli, UniProt P0ABQ4, W133F/W30F/W47F/W74F)", "T5 construct": "gene folA", "source_text": "as §1"}}}
{"smiles": "Nc1nc2ncc(CNc3ccc(C(=O)N[C@@H](CCC(=O)O)C(=O)O)cc3)nc2c(=O)[nH]1", "note": "[folate]", "values": [{"measurement": "Kd", "setting": "[1]", "result": 4.5, "unit": "µM"}, {"measurement": "Kd", "setting": "[2]", "result": 9.5, "unit": "µM"}, {"measurement": "Kd", "setting": "[3]", "result": 8.4, "unit": "µM"}, {"measurement": "Kd", "setting": "[4]", "result": 12, "unit": "µM"}, {"measurement": "Kd", "setting": "[5]", "result": 3.7, "unit": "µM"}]}
